From ChEMBL document CHEMBL3046007, “Isonicotinic acid hydrazide derivatives: synthesis, antimicrobial activity, and QSAR studies” (Med Chem Res, 2012)
In brackets after ≈: the same amount, converted by molar mass.

tested on: Candida albicans; assay: Antimicrobial activity against Candida albicans after 48 hr by serial dilution method; format: functional; settings: not given

Row | SMILES | -logMIC
1 | CCOc1cc(/C=N/NC(=O)c2ccncc2)ccc1O | 2.36
2 | COc1cccc(OC)c1/C=N/NC(=O)c1ccncc1 | 2.36
3 | COc1cc(/C=N/NC(=O)c2ccncc2)cc(OC)c1OC | 2.4

tested on: Human immunodeficiency virus 1; assay: Antiviral activity against Human immunodeficiency virus 1 IIIB infected human MT4 cells assessed as inhibition of virus-induced cytopathicity; format: functional, organism-based; settings: not given

Row | SMILES | EC50
4 | CCOc1cc(/C=N/NC(=O)c2ccncc2)ccc1O | > 102 µg/mL
5 | COc1cccc(OC)c1/C=N/NC(=O)c1ccncc1 | > 9 µg/mL
6 | COc1cc(/C=N/NC(=O)c2ccncc2)cc(OC)c1OC | > 110 µg/mL

tested on: Punta Toro virus; assay: Antiviral activity against Punta Toro virus infected Vero cells assessed as inhibition of virus-induced cytopathicity; format: functional, organism-based; settings: not given

Row | SMILES | EC50
7 | CCOc1cc(/C=N/NC(=O)c2ccncc2)ccc1O | > 100 µg/mL
8 | COc1cccc(OC)c1/C=N/NC(=O)c1ccncc1 | > 20 µg/mL
9 | COc1cc(/C=N/NC(=O)c2ccncc2)cc(OC)c1OC | > 100 µg/mL

tested on: Human respirovirus 3; assay: Antiviral activity against Human parainfluenza virus 3 infected Vero cells assessed as inhibition of virus-induced cytopathicity; format: functional, organism-based; settings: Human respirovirus 3, Vero

Row | SMILES | EC50
10 | CCOc1cc(/C=N/NC(=O)c2ccncc2)ccc1O | > 100 µg/mL
11 | COc1cccc(OC)c1/C=N/NC(=O)c1ccncc1 | > 20 µg/mL
12 | COc1cc(/C=N/NC(=O)c2ccncc2)cc(OC)c1OC | > 100 µg/mL

tested on: Human immunodeficiency virus 2; assay: Antiviral activity against Human immunodeficiency virus type 2 (ISOLATE ROD) infected human MT4 cells assessed as inhibition of virus-induced cytopathicity; format: functional, organism-based; settings: Human immunodeficiency virus 2, ISOLATE ROD

Row | SMILES | EC50
13 | CCOc1cc(/C=N/NC(=O)c2ccncc2)ccc1O | > 102 µg/mL
14 | COc1cccc(OC)c1/C=N/NC(=O)c1ccncc1 | > 9 µg/mL
15 | COc1cc(/C=N/NC(=O)c2ccncc2)cc(OC)c1OC | > 110 µg/mL

tested on: Sindbis virus; assay: Antiviral activity against Sindbis virus infected Vero cells assessed as inhibition of virus-induced cytopathicity; format: functional, organism-based; settings: not given

Row | SMILES | EC50
16 | CCOc1cc(/C=N/NC(=O)c2ccncc2)ccc1O | > 100 µg/mL
17 | COc1cccc(OC)c1/C=N/NC(=O)c1ccncc1 | > 20 µg/mL
18 | COc1cc(/C=N/NC(=O)c2ccncc2)cc(OC)c1OC | > 100 µg/mL

tested on: not listed separately; assay: Cytotoxicity against Chlorocebus aethiops (African green monkey) Vero cells assessed as alteration in cell morphology; format: cell-based; settings: chlorocebus sabaeus

Row | SMILES | MCC
19 | CCOc1cc(/C=N/NC(=O)c2ccncc2)ccc1O | > 100 µg/mL
20 | COc1cccc(OC)c1/C=N/NC(=O)c1ccncc1 | 100 µg/mL
21 | COc1cc(/C=N/NC(=O)c2ccncc2)cc(OC)c1OC | > 100 µg/mL

tested on: Respiratory syncytial virus; assay: Antiviral activity against Respiratory syncytial virus infected human HeLa cells assessed as inhibition of virus-induced cytopathicity; format: functional, organism-based; settings: not given

Row | SMILES | EC50
22 | CCOc1cc(/C=N/NC(=O)c2ccncc2)ccc1O | > 100 µg/mL
23 | COc1cccc(OC)c1/C=N/NC(=O)c1ccncc1 | > 20 µg/mL
24 | COc1cc(/C=N/NC(=O)c2ccncc2)cc(OC)c1OC | > 100 µg/mL

tested on: Human alphaherpesvirus 1; assay: Antiviral activity against Human herpesvirus 1 strain KOS infected in human HEL cells assessed as inhibition of virus-induced cytopathicity; format: functional, organism-based; settings: Human alphaherpesvirus 1, KOS

Row | SMILES | EC50
25 | CCOc1cc(/C=N/NC(=O)c2ccncc2)ccc1O | > 100 µg/mL
26 | COc1cccc(OC)c1/C=N/NC(=O)c1ccncc1 | > 100 µg/mL
27 | COc1cc(/C=N/NC(=O)c2ccncc2)cc(OC)c1OC | > 100 µg/mL

tested on: Human alphaherpesvirus 1; assay: Antiviral activity against TK(-) aciclovir-resistant Human herpesvirus 1 strain KOS infected in human HEL cells assessed as inhibition of virus-induced cytopathicity; format: functional, organism-based; settings: Human alphaherpesvirus 1, KOS

Row | SMILES | EC50
28 | CCOc1cc(/C=N/NC(=O)c2ccncc2)ccc1O | > 100 µg/mL
29 | COc1cccc(OC)c1/C=N/NC(=O)c1ccncc1 | > 100 µg/mL
30 | COc1cc(/C=N/NC(=O)c2ccncc2)cc(OC)c1OC | > 100 µg/mL

tested on: Vesicular stomatitis virus; assay: Antiviral activity against Vesicular stomatitis virus infected human HeLa cells assessed as inhibition of virus-induced cytopathicity; format: functional, organism-based; settings: not given

Row | SMILES | EC50
31 | CCOc1cc(/C=N/NC(=O)c2ccncc2)ccc1O | > 100 µg/mL
32 | COc1cccc(OC)c1/C=N/NC(=O)c1ccncc1 | > 20 µg/mL
33 | COc1cc(/C=N/NC(=O)c2ccncc2)cc(OC)c1OC | > 100 µg/mL

tested on: Mammalian orthoreovirus 1; assay: Antiviral activity against Mammalian orthoreovirus 1 infected Vero cells assessed as inhibition of virus-induced cytopathicity; format: functional, organism-based; settings: Mammalian orthoreovirus 1, Vero

Row | SMILES | EC50
34 | CCOc1cc(/C=N/NC(=O)c2ccncc2)ccc1O | > 100 µg/mL
35 | COc1cccc(OC)c1/C=N/NC(=O)c1ccncc1 | > 20 µg/mL
36 | COc1cc(/C=N/NC(=O)c2ccncc2)cc(OC)c1OC | > 100 µg/mL

tested on: Escherichia coli; assay: Antimicrobial activity against Escherichia coli after 24 hr by serial dilution method; format: functional; settings: not given

Row | SMILES | -logMIC
37 | CCOc1cc(/C=N/NC(=O)c2ccncc2)ccc1O | 2.36
38 | COc1cccc(OC)c1/C=N/NC(=O)c1ccncc1 | 2.06
39 | COc1cc(/C=N/NC(=O)c2ccncc2)cc(OC)c1OC | 2.1

tested on: not listed separately; assay: Cytotoxicity against Homo sapiens (human) HEL cells; format: cell-based; settings: not given

Row | SMILES | MCC
40 | CCOc1cc(/C=N/NC(=O)c2ccncc2)ccc1O | > 100 µg/mL
41 | COc1cccc(OC)c1/C=N/NC(=O)c1ccncc1 | > 100 µg/mL
42 | COc1cc(/C=N/NC(=O)c2ccncc2)cc(OC)c1OC | > 100 µg/mL

tested on: Staphylococcus aureus; assay: Antimicrobial activity against Staphylococcus aureus after 24 hr by serial dilution method; format: functional; settings: not given

Row | SMILES | -logMIC
43 | CCOc1cc(/C=N/NC(=O)c2ccncc2)ccc1O | 2.06
44 | COc1cccc(OC)c1/C=N/NC(=O)c1ccncc1 | 2.06
45 | COc1cc(/C=N/NC(=O)c2ccncc2)cc(OC)c1OC | 2.1

tested on: Human alphaherpesvirus 2; assay: Antiviral activity against Human herpesvirus 2 strain G infected human HEL cells assessed as inhibition of virus-induced cytopathicity; format: functional, organism-based; settings: Human alphaherpesvirus 2, strain G

Row | SMILES | EC50
46 | CCOc1cc(/C=N/NC(=O)c2ccncc2)ccc1O | > 100 µg/mL
47 | COc1cccc(OC)c1/C=N/NC(=O)c1ccncc1 | > 100 µg/mL
48 | COc1cc(/C=N/NC(=O)c2ccncc2)cc(OC)c1OC | > 100 µg/mL

tested on: Aspergillus niger; assay: Antimicrobial activity against Aspergillus niger after 7 days by serial dilution method; format: functional; settings: not given

Row | SMILES | -logMIC
49 | CCOc1cc(/C=N/NC(=O)c2ccncc2)ccc1O | 2.36
50 | COc1cccc(OC)c1/C=N/NC(=O)c1ccncc1 | 2.36
51 | COc1cc(/C=N/NC(=O)c2ccncc2)cc(OC)c1OC | 2.4

tested on: Coxsackievirus B4; assay: Antiviral activity against Human coxsackievirus B4 infected Vero cells assessed as inhibition of virus-induced cytopathicity; format: functional, organism-based; settings: Enterovirus B

Row | SMILES | EC50
52 | CCOc1cc(/C=N/NC(=O)c2ccncc2)ccc1O | > 100 µg/mL
53 | COc1cccc(OC)c1/C=N/NC(=O)c1ccncc1 | > 20 µg/mL
54 | COc1cc(/C=N/NC(=O)c2ccncc2)cc(OC)c1OC | > 100 µg/mL

tested on: Coxsackievirus B4; assay: Antiviral activity against Human coxsackievirus B4 infected human HeLa cells assessed as inhibition of virus-induced cytopathicity; format: functional, organism-based; settings: Enterovirus B

Row | SMILES | EC50
55 | CCOc1cc(/C=N/NC(=O)c2ccncc2)ccc1O | > 100 µg/mL
56 | COc1cccc(OC)c1/C=N/NC(=O)c1ccncc1 | > 20 µg/mL
57 | COc1cc(/C=N/NC(=O)c2ccncc2)cc(OC)c1OC | > 100 µg/mL

tested on: not listed separately; assay: Cytotoxicity against Homo sapiens (human) HeLa cells; format: cell-based; settings: not given

Row | SMILES | MCC
58 | CCOc1cc(/C=N/NC(=O)c2ccncc2)ccc1O | > 100 µg/mL
59 | COc1cccc(OC)c1/C=N/NC(=O)c1ccncc1 | 100 µg/mL
60 | COc1cc(/C=N/NC(=O)c2ccncc2)cc(OC)c1OC | ≥ 100 µg/mL

tested on: Bacillus subtilis; assay: Antimicrobial activity against Bacillus subtilis after 24 hr by serial dilution method; format: functional; settings: not given

Row | SMILES | -logMIC
61 | CCOc1cc(/C=N/NC(=O)c2ccncc2)ccc1O | 2.06
62 | COc1cccc(OC)c1/C=N/NC(=O)c1ccncc1 | 2.06
63 | COc1cc(/C=N/NC(=O)c2ccncc2)cc(OC)c1OC | 2.4

tested on: not listed separately; assay: Cytotoxicity against Homo sapiens (human) MT4 cells; format: cell-based; settings: not given

Row | SMILES | CC50
64 | CCOc1cc(/C=N/NC(=O)c2ccncc2)ccc1O | 102 µg/mL (≈ 358 µM)
65 | COc1cccc(OC)c1/C=N/NC(=O)c1ccncc1 | 9 µg/mL (≈ 31.5 µM)
66 | COc1cc(/C=N/NC(=O)c2ccncc2)cc(OC)c1OC | 110 µg/mL (≈ 349 µM)

tested on: Vaccinia virus; assay: Antiviral activity against Vaccinia virus infected human HEL cells assessed as inhibition of virus-induced cytopathicity; format: functional, organism-based; settings: Orthopoxvirus vaccinia

Row | SMILES | EC50
67 | CCOc1cc(/C=N/NC(=O)c2ccncc2)ccc1O | > 100 µg/mL
68 | COc1cccc(OC)c1/C=N/NC(=O)c1ccncc1 | > 100 µg/mL
69 | COc1cc(/C=N/NC(=O)c2ccncc2)cc(OC)c1OC | > 100 µg/mL
